# Tests used:
# [1] = system: BV2 cells; assay: BV2 cell proliferation assay (CCK-8); format: cell-based; conditions: Mus musculus, BV-2, 48 h treatment, CCK-8, top concentration 33.3 μM, mean pIC50 of multiple test results, read-out: BV2 Profileration pIC50 (converted)
# Description: (§1) The assay measures the ability of a compound to inhibit cell proliferation using Cell Counting Kit-8 (CCK-8), which allows sensitive colorimetric assays for the determination of cell viability in cell proliferation and cytotoxicity assays. The highly water-soluble tetrazolium salt, WST-8, is reduced by dehydrogenase activities in cells to give a yellow-color formazan dye, which is soluble in the tissue culture media. The amount of the formazan dye, generated by the activities of dehydrogenases in cells, is directly proportional to the number of living cells.
# (§2) The assay was performed based on the instruction of the manufacturer (Dojindo Molecular Technologies Inc., Rockville, MD, USA). To start the assay, BV2 cells were seeded at a density of […] into 96-well plates and treated with test compounds, which were used at a top final assay concentration of 33.3 μM, diluted in assay medium with 1:3 dilutions to produce 10 point concentration responses, for 48 h. After incubation, the CCK-8 solution (10 μl) was added to each well of the plate and the plates were incubated in incubator at 37° C. for 3 h. Absorbance was recorded three times independently using a microplate reader (Bio-Rad Laboratories, Richmond, CA, USA) at 450 nm.
# Selected examples were tested in the BV2 cell proliferation. The data mentioned below represents a mean pIC50 value of multiple test results. It is understood that the data illustrated below may have reasonable variation depending on the specific conditions and procedures used by the person conducting the testing.
# [2] = system: U251 cell; assay: U251 cell proliferation assay (CCK-8); format: cell-based; conditions: Homo sapiens, U-251; U251 cells; read-out: U251 Profileration pIC50 (converted)
# Description: [The source words this procedure for another cell line and reports this cell line under the same test.] as §1, §2
# [3] = target: MIF (Homo sapiens (Human), UniProt P14174); assay: MIF tautomerase assay using pHPP as substrate; format: biochemical; conditions: cell-free, pHPP substrate 1.5 mM, MIF 3 nM; mean pIC50 of multiple test results
# Protocol: Tautomerase Assay Using pHPP as substrate
# This assay measured MIF's tautomerase activity in a cell-free system and was based on the determination of initial rates of the MIF-catalyzed conversion of the ketonic into the enolic tautomer of pHPP. This was achieved by spectrophotometric quantification of the complex between borate and the product of the reaction (enolic pHPP). The substrate was prepared by conversion of the enolic pHPP into its ketonic form. To achieve this, 0.5 M pHPP in methanol was diluted 10-fold with 50 mM sodium acetate buffer at pH 6.0, and then the suspension was shaken for 24 h at room temperature in darkness, and finally stored at 4° C. for not more than 1 week, with 5 min sonication being recommended before use.
# Assays were performed in small-volume clear-bottom black 96 or 384-well polystyrene plates (Greiner Bio-One). First, 2 μL of the enzyme solution containing 6 nM of MIF in DPBS, 0.025% w/v BSA, and 300 μM CHAPS was dispensed onto sample and negative control wells using Multidrop Combi with metallic tip cassettes (Thermo Fisher Scientific) previously treated with Sigmacote. Then, 2 μL of the same buffer without MIF was dispensed onto positive control wells. The reaction was started by addition of the following to all wells: 2 μL of substrate solution containing 3 mM ketonic pHPP in 200 mM boric acid, 25 mM sodium phosphate, 0.025% w/v BSA, and 300 μM CHAPS at pH 6.0. In order to remove bubbles, the plate was centrifuged in an Allegra 25R centrifuge (Beckman Coulter, Inc., Brea, CA) at 1000 rpm for 2 min at room temperature. Then, the plate was read in an EnVision. Final concentrations of enzyme and substrate were 3 nM and 1.5 mM, respectively. Initial rates were calculated for each well as the slope of the absorbance progress curve.
# The data mentioned below represents a mean pIC50 value of multiple test results. It is understood that the data illustrated below may have reasonable variation depending on the specific conditions and procedures used by the person conducting the testing.
# MIF, sequence (P14174 2-115): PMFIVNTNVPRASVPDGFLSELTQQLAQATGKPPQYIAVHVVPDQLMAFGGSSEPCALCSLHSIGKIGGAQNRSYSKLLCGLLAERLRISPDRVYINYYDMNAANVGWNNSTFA
Compound,IC50 [1],IC50 [2],Tautomerase Inhibition pIC50 [3]
"COc1cc(N2CCOCC2)ccc1C(=O)N(C)Cc1nnc(-c2cccs2)o1 [Compound 52, 2-methoxy-N-methyl-4-morpholino-N-((5-(thiophen-2-yl)-1,3,4-oxadiazol-2-yl)methyl)benzamide]",3.63 µM,> 1000 µM,4.20
"COc1cc(N2CCCCC2)ccc1C(=O)NCc1nnc(-c2cccs2)o1 [Compound 56, 2-methoxy-4-(piperidin-1-yl)-N-((5-(thiophen-2-yl)-1,3,4-oxadiazol-2-yl)methyl)benzamide]",16.2 µM,> 1000 µM,6.13
"COc1cc(N2CCNCC2)ccc1C(=O)NCc1nnc(-c2cccs2)o1 [Compound 58, 2-methoxy-4-(piperazin-1-yl)-N-((5-(thiophen-2-yl)-1,3,4-oxadiazol-2-yl)methyl)benzamide]",35.5 µM,> 1000 µM,5.95
"COc1cc(N2CCN(C)CC2)ccc1C(=O)NCc1nnc(-c2cccs2)o1 [Compound 59, 2-methoxy-4-(4-methylpiperazin-1-yl)-N-((5-(thiophen-2-yl)-1,3,4-oxadiazol-2-yl)methyl)benzamide]",40.7 µM,> 1000 µM,5.90
"COc1cc(N2CCOCC2)ccc1C(=O)NCc1nnc(-c2ccccc2)o1 [Compound 63, 2-methoxy-4-morpholino-N-((5-phenyl-1,3,4-oxadiazol-2-yl)methyl)benzamide]",21.4 µM,> 1000 µM,<5
"O=C1c2ccccc2CCN1Cc1nnc(-c2cccs2)o1 [Compound 72, 2-((5-(thiophen-2-yl)-1,3,4-oxadiazol-2-yl)methyl)-3,4-dihydroisoquinolin-1(2H)-one]",123 µM,> 1000 µM,<5
"O=C1c2ccc(Br)cc2CCN1Cc1nnc(-c2cccs2)o1 [Compound 73, 6-bromo-2-((5-(thiophen-2-yl)-1,3,4-oxadiazol-2-yl)methyl)-3,4-dihydroisoquinolin-1(2H)-one]",23.4 µM,> 1000 µM,<5
"O=C1c2ccc(N3CCOCC3)cc2CCN1Cc1nnc(-c2cccs2)o1 [Compound 74, 6-morpholino-2-((5-(thiophen-2-yl)-1,3,4-oxadiazol-2-yl)methyl)-3,4-dihydroisoquinolin-1(2H)-one]",25.1 µM,> 1000 µM,<5
"COc1cc(N2CCOCC2)ccc1NC(=O)c1nnc(-c2cccs2)o1 [Compound 75, N-(2-methoxy-4-morpholinophenyl)-5-(thiophen-2-yl)-1,3,4-oxadiazole-2-carboxamide]",28.2 µM,> 1000 µM,<5
"COc1cc(NC2CCN(C)C2)ccc1C(=O)NCc1nnc(-c2cccs2)o1 (stereo not drawn) [Compound 76, 2-methoxy-4-((1-methylpyrrolidin-3-yl)amino)-N-((5-(thiophen-2-yl)-1,3,4-oxadiazol-2-yl)methyl)benzamide]",> 1000 µM,> 1000 µM,1.77
"CNCCNc1ccc(C(=O)NCc2nnc(-c3cccs3)o2)c(OC)c1 [Compound 77, 2-methoxy-4-((2-(methylamino)ethyl)amino)-N-((5-(thiophen-2-yl)-1,3,4-oxadiazol-2-yl)methyl)benzamide]",> 1000 µM,> 1000 µM,5.66
"COc1cc(OC2CCN(C)C2)ccc1C(=O)NCc1nnc(-c2cccs2)o1 (stereo not drawn) [Compound 82, 2-methoxy-4-((1-methylpyrrolidin-3-yl)oxy)-N-((5-(thiophen-2-yl)-1,3,4-oxadiazol-2-yl)methyl)benzamide]",> 1000 µM,> 1000 µM,5.53
"COc1cc(CC(C)(C)O)ccc1C(=O)NCc1nnc(-c2cccs2)o1 [Compound 84, 4-(2-hydroxy-2-methylpropyl)-2-methoxy-N-((5-(thiophen-2-yl)-1,3,4-oxadiazol-2-yl)methyl)benzamide]",41.7 µM,> 1000 µM,6.04
"COc1cc(CN2CCCCC2)ccc1C(=O)NCc1nnc(-c2cccs2)o1 [Compound 85, 2-methoxy-4-(piperidin-1-ylmethyl)-N-((5-(thiophen-2-yl)-1,3,4-oxadiazol-2-yl)methyl)benzamide]",> 1000 µM,> 1000 µM,5.20
"COc1cc(CN2CCOCC2)ccc1C(=O)NCc1nnc(-c2cccs2)o1 [Compound 86, 2-methoxy-4-(morpholinomethyl)-N-((5-(thiophen-2-yl)-1,3,4-oxadiazol-2-yl)methyl)benzamide]",> 1000 µM,> 1000 µM,5.47
